Experimental findings from PMC10877290 (Heliyon, 2024) are described below.

By IC50 is commonly meant the concentration that gives 50% inhibition. By Ki is commonly meant the dissociation constant of the complex between target and ligand, obtained from inhibition or displacement.

“Also recorded” adds a separate entry of the source.

Common to all, as to type: biochemical
The target in experiment [1] is T1, human pancreatic α-amylase (Homo sapiens, UniProt P04746).
T1 sequence (P04746 16-511): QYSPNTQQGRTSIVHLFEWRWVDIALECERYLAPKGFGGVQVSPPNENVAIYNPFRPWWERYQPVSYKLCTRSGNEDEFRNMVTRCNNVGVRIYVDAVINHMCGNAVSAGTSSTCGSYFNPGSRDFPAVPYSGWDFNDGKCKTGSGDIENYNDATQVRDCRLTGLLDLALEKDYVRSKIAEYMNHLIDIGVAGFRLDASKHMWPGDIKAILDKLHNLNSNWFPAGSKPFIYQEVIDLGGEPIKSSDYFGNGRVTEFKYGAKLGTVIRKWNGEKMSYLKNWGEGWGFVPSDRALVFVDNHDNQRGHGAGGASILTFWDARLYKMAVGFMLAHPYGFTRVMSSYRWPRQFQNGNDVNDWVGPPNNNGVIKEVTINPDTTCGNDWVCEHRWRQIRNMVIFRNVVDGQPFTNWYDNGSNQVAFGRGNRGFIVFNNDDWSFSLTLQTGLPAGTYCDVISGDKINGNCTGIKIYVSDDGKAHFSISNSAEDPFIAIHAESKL
Kind of experiment: α-Amylase inhibition assay.

The target of experiment [2] is human lysosomal acid-α-glucosidase (Homo sapiens, UniProt P10253). Kind of experiment: α-Glucosidase inhibition assay.
The target of experiment [3] is T2, α-amylase (Homo sapiens, UniProt P04746).
T2 sequence (P04746 16-511): T1 sequence (P04746 16-511)
Kind of experiment: Enzyme kinetic study, α-amylase. The settings on record: for Inhibition mode towards α-amylase: Lineweaver-Burk plot.

Experiment [4] concerns the target α-glucosidase (Homo sapiens, UniProt P10253). Briefly: Enzyme kinetic study, α-glucosidase. The settings on record: for Inhibition mode towards α-glucosidase: Lineweaver-Burk plot.

Take `COc1cc(C[C@@H]2C[C@H]3C(=O)N(C)[C@@]4(C[C@H](C)CC[C@H]4C(C)C)N3O2)ccc1OCC(=O)N/N=C1\C(=O)Nc2c(Cl)cccc21` [5a, N'-((Z)-7-chloro-2-oxoindolin-3-ylidene)-2-(4-(((1S,2S,2′R,3a′S,5R)-2-isopropyl-5,5′-dimethyl-4′-oxotetrahydro-2′H-spiro[cyclohexane-1,6′-imidazo [1,5-b]isoxazol]-2′-yl)methyl)-2-methoxyphenoxy)acetohydrazide]: the IC50 in experiment [1] was 194 ± 9.54 µM; in experiment [2], 209 ± 10.4 µM. The “Factor by which α-amylase activity is impaired relative to 5d” value in experiment [1] (5a versus 5d) is listed as 6.3. Moreover, the “Factor by which α-glucosidase activity is impaired relative to 5d” value in experiment [2] (5a versus 5d) is listed as 3.2.
Compound `COc1cc(C[C@@H]2C[C@H]3C(=O)N(C)[C@@]4(C[C@H](C)CC[C@H]4C(C)C)N3O2)ccc1OCC(=O)N/N=C1\C(=O)Nc2ccc(F)cc21` [5b, N'-((Z)-5-fluoro-2-oxoindolin-3-ylidene)-2-(4-(((1S,2S,2′R,3a′S,5R)-2-isopropyl-5,5′-dimethyl-4′-oxotetrahydro-2′H-spiro[cyclohexane-1,6′-imidazo [1,5-b]isoxazol]-2′-yl)methyl)-2-methoxyphenoxy)acetohydrazide] returned an IC50 in experiment [1] of 174 ± 8.71 µM.
As to `COc1cc(C[C@@H]2C[C@H]3C(=O)N(C)[C@@]4(C[C@H](C)CC[C@H]4C(C)C)N3O2)ccc1OCC(=O)N/N=C1\C(=O)Nc2cc(Br)ccc21` [5c, N'-((Z)-6-bromo-2-oxoindolin-3-ylidene)-2-(4-(((1S,2S,2′R,3a′S,5R)-2-isopropyl-5,5′-dimethyl-4′-oxotetrahydro-2′H-spiro[cyclohexane-1,6′-imidazo [1,5-b]isoxazol]-2′-yl)methyl)-2-methoxyphenoxy)acetohydrazide], the 50% inhibitory concentration (IC50) in experiment [1] was 68 ± 3.4 µM; in experiment [2] it was 152 ± 7.56 µM.
In experiment [1], `Cc1cccc(C[C@@H]2C[C@H]3C(=O)N(C)[C@@]4(C[C@H](C)CC[C@H]4C(C)C)N3O2)c1OCC(=O)N/N=C1\C(=O)Nc2c(Cl)cccc21` [5d, N'-((Z)-7-chloro-2-oxoindolin-3-ylidene)-2-(2-(((1S,2S,2′R,3a′S,5R)-2-isopropyl-5,5′-dimethyl-4′-oxotetrahydro-2′H-spiro[cyclohexane-1,6′-imidazo [1,5-b]isoxazol]-2′-yl)methyl)-6-methylphenoxy)acetohydrazide] showed an IC50 of 30.4 ± 1.52 µM. Inhibition in experiment [2] was half-maximal at 65.1 ± 3.11 µM (IC50). In experiment [3], the Ki is 27.5 µM and the “Inhibition mode towards α-amylase” value is “competitive inhibition; also recorded: competitive inhibitors”. Moreover, in experiment [4], the Ki turned out to be 56.1 µM and the “Inhibition mode towards α-glucosidase” value is recorded as “competitive inhibitors; also recorded: compete with the substrate”.
Turning to `Cc1cccc(C[C@@H]2C[C@H]3C(=O)N(C)[C@@]4(C[C@H](C)CC[C@H]4C(C)C)N3O2)c1OCC(=O)N/N=C1\C(=O)Nc2cc(Br)ccc21` [5e, N'-((Z)-6-bromo-2-oxoindolin-3-ylidene)-2-(2-(((1S,2S,2′R,3a′S,5R)-2-isopropyl-5,5′-dimethyl-4′-oxotetrahydro-2′H-spiro[cyclohexane-1,6′-imidazo [1,5-b]isoxazol]-2′-yl)methyl)-6-methylphenoxy)acetohydrazide], the IC50 in experiment [1] is 92.4 ± 4.05 µM; in experiment [2], 172 ± 8.44 µM.
The corresponding values for `Cc1cccc(C[C@@H]2C[C@H]3C(=O)N(C)[C@@]4(C[C@H](C)CC[C@H]4C(C)C)N3O2)c1OCC(=O)N/N=C1\C(=O)Nc2ccc(F)cc21` [5f, N'-((Z)-5-fluoro-2-oxoindolin-3-ylidene)-2-(2-(((1S,2S,2′R,3a′S,5R)-2-isopropyl-5,5′-dimethyl-4′-oxotetrahydro-2′H-spiro[cyclohexane-1,6′-imidazo [1,5-b]isoxazol]-2′-yl)methyl)-6-methylphenoxy)acetohydrazide] are 55.7 ± 2.78 µM and 107 ± 5.31 µM.
As to `Cc1ccc2c(c1)/C(=N/NC(=O)COc1c(C)cccc1C[C@@H]1C[C@H]3C(=O)N(C)[C@@]4(C[C@H](C)CC[C@H]4C(C)C)N3O1)C(=O)N2` [5g, 2-(2-(((1S,2S,2′R,3a′S,5R)-2-isopropyl-5,5′-dimethyl-4′-oxotetrahydro-2′H-spiro[cyclohexane-1,6′-imidazo [1,5-b]isoxazol]-2′-yl)methyl)-6-methylphenoxy)-N'-((Z)-5-methyl-2-oxoindolin-3-ylidene)acetohydrazide], in experiment [1], the IC50 was 135 ± 6.73 µM.
Regarding `Cc1cccc(C[C@@H]2C[C@H]3C(=O)N(C)[C@@]4(C[C@H](C)CC[C@H]4C(C)C)N3O2)c1OCC(=O)N/N=C1\C(=O)Nc2c(F)cccc21` [5h, N'-((Z)-7-fluoro-2-oxoindolin-3-ylidene)-2-(2-(((1S,2S,2′R,3a′S,5R)-2-isopropyl-5,5′-dimethyl-4′-oxotetrahydro-2′H-spiro[cyclohexane-1,6′-imidazo [1,5-b]isoxazol]-2′-yl)methyl)-6-methylphenoxy)acetohydrazide], the IC50 in experiment [1] came out at 46.6 ± 2.3 µM; in experiment [2] it was 85.2 ± 4.25 µM.
Take `C[C@H]1O[C@H](O[C@H]2[C@H](O)[C@@H](O)[C@@H](O[C@H]3[C@H](O)[C@@H](O)C(O)O[C@@H]3CO)O[C@@H]2CO)[C@H](O)[C@@H](O)[C@@H]1N[C@H]1C=C(CO)[C@@H](O)[C@H](O)[C@H]1O` (stereo partly shown) [Acarbose, reference compound]: the “Inhibition mode towards α-amylase” value in experiment [3] is recorded as “competitive inhibition; also recorded: competitive inhibitors”. For the same compound, in experiment [4], the “Inhibition mode towards α-glucosidase” value is listed as “competitive inhibitors; also recorded: compete with the substrate”.
